In patent US20220057383A1, “USE OF BIOMARKERS TO EVALUATE THE EFFICACY OF A COMPOSITION IN REDUCING THE EFFECTS OF CANCER THERAPEUTICS ON SKIN” (Johnson & Johnson Consumer Inc., priority 2019, published 2022):
Like-named read-outs stand apart in the source and are kept apart here.

Legend:
[1] = human, in vivo; cited from earlier work
[2] = test system: Reconstructed Human Epidermis (RHE) tissues
RHE keratinocytes = test: Transcriptomic analysis (gene expression profiling) of RHE keratinocytes treated with afatinib; format: cell-based, human; details: 100 nM afatinib; for number of genes down-regulated compared to control / number of genes up-regulated compared to control: cut off 50%
[3] = 100 nM afatinib vs control, cut off 1.2-fold, overall

Afatinib
appearance of granulomas versus other EGFRi [1]: more frequent appearance of granulomas | FOXO3 phosphorylation ([2]; 100 nM afatinib): decreased | cellular senescence pathway, enrichment based on change of protein phosphorylation status ([2]; 100 nM afatinib): significant enrichment | number of phosphoproteins with changed phosphorylation status ([2]; 100 nM afatinib vs control, cut off 1.2-fold change (more than 20%), all time points): 62 | number of proteins with a significant decrease of phosphorylation status [2, 3]: 18 | number of proteins with a significant increase of phosphorylation status [2, 3]: 44 | number of proteins showing decreased phosphorylation compared to control ([2]; 100 nM afatinib, 20 min): 3 | number of proteins showing increased phosphorylation compared to control ([2]; 100 nM afatinib, 20 min): 6 | PI3K-AKT pathway, Set Enrichment Analysis of phosphorylation status ([2]; 100 nM afatinib, 24 h): significant enrichment | number of proteins showing decreased phosphorylation compared to control ([2]; 100 nM afatinib, 24 h): 23 | number of proteins showing increased phosphorylation compared to control ([2]; 100 nM afatinib, 24 h): 18 | phosphorylation of MEK1 (Phospho-Ser217) ([2]; 100 nM afatinib, 24 h): not impacted | phosphorylation of MEK1 (Phospho-Ser221) ([2]; 100 nM afatinib, 24 h): not impacted | phosphorylation of Raf1 (Phospho-Ser338) ([2]; 100 nM afatinib, 24 h): decreased | phosphorylation of Raf1 (Phospho-Tyr341) ([2]; 100 nM afatinib, 24 h): not impacted | phosphorylation of eIF4E (Phospho-Ser209) ([2]; 100 nM afatinib, 24 h): decreased | number of proteins showing decreased phosphorylation compared to control ([2]; 100 nM afatinib, 72 h): 6 | number of proteins showing increased phosphorylation compared to control ([2]; 100 nM afatinib, 72 h): 6 | expression of genes related to inflammation (Th1 response) (RHE keratinocytes): did not show any increase | genes involved in innate immunity (S100 family, SPRR2B, DEFB1) (RHE keratinocytes): negatively regulated | number of genes down-regulated compared to control (RHE keratinocytes; 6 h): 170 | number of genes up-regulated compared to control (RHE keratinocytes; 6 h): 201 | expression of KRT2, KRT9, KRT13, KRT15 and Late Cornified Envelop genes (LCE2A, LCE1B, LCE2B, LCE1C, LCE2D) (RHE keratinocytes; 24 h): increase | expression of metallothionein panel (MT1E, MT1L, MT1H L1, MT1X, MT1B, MT1A) (RHE keratinocytes; 24 h): decreased | number of genes down-regulated compared to control (RHE keratinocytes; 24 h): 335 | number of genes up-regulated compared to control (RHE keratinocytes; 24 h): 281 | expression of CYP (CYP4B1, CYP3A7, CYP3A5, CYP2J2, CYP4A11, CYP1A1, CYP4F22) (RHE keratinocytes; 24 h and 72 h): decreased | expression of CYP (Inc-CYP24A1-1, CYP27A1, CYP4F12) (RHE keratinocytes; 24 h and 72 h): increased | expression of SIRT4 (RHE keratinocytes; 72 h): increased | expression of antioxidant enzymes PRDX2 and PRDX3 (RHE keratinocytes; 72 h): decreased | expression of metallothionein panel (MT1E, MT1L, MT1H L1, MT1X, MT1B, MT1A) (RHE keratinocytes; 72 h): increased | genes related to IL4 and IL13 signaling (Th2 response) (RHE keratinocytes; cluster C2): over representation | genes related to the PI3K/AKT pathway (RHE keratinocytes; cluster C6): upregulation | number of dysregulated genes (RHE keratinocytes; cut-off 50% fold-change, different time points): 2,182 | inflammasome response via TLR, NLR and IL1 families (RHE keratinocytes; protein phosphorylation assay and gene expression array): decreased
